{"source": "patent US4127541A", "about": "“Novel decapeptides, intermediates therefor, and compositions and methods employing said decapeptides” (priority 1977, dated 1978)", "origin": "cited, not measured here", "key": {"[1]": {"test_system": "brain opiate receptor sites"}, "[2]": {"details": "injected directly into the brain of the rat"}}, "data": [{"substance": "H-Tyr-Gly-Gly-Phe-Met-OH [methionine enkephalin]", "values": [{"measurement": "binding to partially purified brain opiate receptor sites", "setting": "[1]", "value": "binds stereo-specifically"}, {"measurement": "analgesic activity", "setting": "[2]", "value": "weak analgesic agent of short duration"}]}]}
